We go through 17 compounds from patent US20140221361A1, “C-19 MODIFIED TRITERPENOIDS WITH HIV MATURATION INHIBITORY ACTIVITY” (priority 2013, published 2014).

Molecules are shown by their SMILES.

The test system of the first assay is recombinant NL4-3 virus (Renilla luciferase in nef, Gag P373S). Put plainly: HIV cell culture assay (luciferase reporter, MT-2 cells). The format is cell-based, HIV-1. As to conditions: MT-2 cells infected for 4-5 days with NLRluc recombinants; luciferase activity; serial dilutions of inhibitor. The essentials: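 MT-2 cells infected with recombinant NL4-3 carrying Renilla luciferase in place of part of nef and Gag P373S, virus made by 293T transfection. Infection ran 4-5 days with serial inhibitor dilutions. Antiviral activity read as luciferase activity (Dual Luciferase reagents mixed with lysis buffer).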
On the technique in general: A reporter such as luciferase makes a cellular process visible.
As usually defined, the EC50 is the concentration needed to bring the measured effect to its halfway point. As for `CC(CO)[C@@H]1CC[C@]2(NCCN3CCS(=O)(=O)CC3)CC[C@]3(C)[C@H](CC[C@@H]4[C@@]5(C)CC=C(c6ccc(C(=O)O)cc6)C(C)(C)[C@@H]5CC[C@]43C)[C@@H]12` (single isomer, unassigned) [Example B6], the EC50 was found to be 3.75 nM.
Same read-out and setting: the figure for `CC(CC(=O)O)[C@@H]1CC[C@]2(C(=O)NCCN(C)C)CC[C@]3(C)[C@H](CC[C@@H]4[C@@]5(C)CC[C@H](c6ccc(C(=O)O)cc6)C(C)(C)[C@@H]5CC[C@]43C)[C@@H]12` (single isomer, unassigned) [Example 21] is 40 nM.

Staying with this assay, now noted: Renilla, NL43, MT-2 cells infected for 4-5 days with NLRluc recombinants; luciferase activity; serial dilutions of inhibitor.
Consider `CC(C)(O)[C@@H]1CC[C@]2(NCCN3CC4CC3CO4)CC[C@]3(C)[C@H](CC[C@@H]4[C@@]5(C)CC=C(C6=CCC(C(=O)O)CC6)C(C)(C)[C@@H]5CC[C@]43C)[C@@H]12` (stereo partly drawn) [Example 23, 4-((1R,3aS,5aR,5bR,7aR,11aS,11bR,13aR,13bS)-3a-((2-(2-oxa-5-azabicyclo[2.2.1]heptan-5-yl)ethyl)amino)-1-(2-hydroxypropan-2-yl)-5a,5b,8,8,11a-pentamethyl-2,3,3a,4,5,5a,5b,6,7,7a,8,11,11a,11b,12,13,13a,13b-octadecahydro-1H-cyclopenta[a]chrysen-9-yl)cyclohex-3-enecarboxylic acid], for which the concentration giving a half-maximal response (EC50) turned out to be 0.779 nM.
As for `CC1([C@@H]2CC[C@]3(NC(=O)CN4CCS(=O)(=O)CC4)CC[C@]4(C)[C@H](CC[C@@H]5[C@@]6(C)CC=C(c7ccc(C(=O)O)cc7)C(C)(C)[C@@H]6CC[C@]54C)[C@@H]23)CC1` [Example B51, 4-((1R,3aS,5aR,5bR,7aR,11aS,11bR,13aR,13bR)-3a-(2-(1,1-dioxidothiomorpholino)acetamido)-5a,5b,8,8,11a-pentamethyl-1-(1-methylcyclopropyl)-2,3,3a,4,5,5a,5b,6,7,7a,8,11,11a,11b,12,13,13a,13b-octadecahydro-1H-cyclopenta[a]chrysen-9-yl)benzoic acid], the EC50 turned out to be 1.1 nM.
On to `CC(CC(=O)O)[C@@H]1CC[C@]2(C(=O)NCCN(C)C)CC[C@]3(C)[C@H](CC[C@@H]4[C@@]5(C)CC[C@H](c6ccc(C(=O)O)cc6)C(C)(C)[C@@H]5CC[C@]43C)[C@@H]12` (single isomer, unassigned) [Example 20], for which the EC50 is 30 nM.
On to `CC1(C)C(c2ccc(C(=O)O)cc2)=CC[C@]2(C)[C@H]3CC[C@@H]4[C@H]5[C@H](C(=O)N6CCOCC6)CC[C@]5(NCCN5CCS(=O)(=O)CC5)CC[C@@]4(C)[C@]3(C)CC[C@@H]12` [Example B27, 4-((1R,3aS,5aR,5bR,7aR,11aS,11bR,13aR,13bS)-3a-((2-(1,1-dioxidothiomorpholino)ethyl)amino)-5a,5b,8,8,11a-pentamethyl-1-(morpholine-4-carbonyl)-2,3,3a,4,5,5a,5b,6,7,7a,8,11,11a,11b,12,13,13a,13b-octadecahydro-1H-cyclopenta[a]chrysen-9-yl)benzoic acid], for which the half-maximal effective concentration (EC50) stood at 8.11 nM.
For `CC1(C)C(c2ccc(C(=O)O)cc2)=CC[C@]2(C)[C@H]3CC[C@@H]4[C@H]5[C@H](CO)CC[C@]5(NCCN5CCS(=O)(=O)CC5)CC[C@@]4(C)[C@]3(C)CC[C@@H]12` [Example B42, 4-((1R,3aS,5aR,5bR,7aR,11aS,11bR,13aR,13bS)-3a-((2-(1,1-dioxidothiomorpholino)ethyl)amino)-1-(hydroxymethyl)-5a,5b,8,8,11a-pentamethyl-2,3,3a,4,5,5a,5b,6,7,7a,8,11,11a,11b,12,13,13a,13b-octadecahydro-1H-cyclopenta[a]chrysen-9-yl)benzoic acid], the EC50 is 40 nM.
`CC1(C)C(c2ccc(C(=O)O)cc2)=CC[C@]2(C)[C@H]3CC[C@@H]4[C@H]5[C@H](c6nnco6)CC[C@]5(NCCN5CCS(=O)(=O)CC5)CC[C@@]4(C)[C@]3(C)CC[C@@H]12` [Example B31, 4-((1R,3aS,5aR,5bR,7aR,11aS,11bR,13aR,13bS)-3a-((2-(1,1-dioxidothiomorpholino)ethyl)amino)-5a,5b,8,8,11a-pentamethyl-1-(1,3,4-oxadiazol-2-yl)-2,3,3a,4,5,5a,5b,6,7,7a,8,11,11a,11b,12,13,13a,13b-octadecahydro-1H-cyclopenta[a]chrysen-9-yl)benzoic acid]: the EC50 was 30 nM.
Take `CC1([C@@H]2CC[C@]3(N)CC[C@]4(C)[C@H](CC[C@@H]5[C@@]6(C)CC=C(c7ccc(C(=O)O)cc7)C(C)(C)[C@@H]6CC[C@]54C)[C@@H]23)CC1` [Example B49, 4-((1R,3aS,5aR,5bR,7aR,11aS,11bR,13aR,13bR)-3a-amino-5a,5b,8,8,11a-pentamethyl-1-(1-methylcyclopropyl)-2,3,3a,4,5,5a,5b,6,7,7a,8,11,11a,11b,12,13,13a,13b-octadecahydro-1H-cyclopenta[a]chrysen-9-yl)benzoic acid]: the concentration giving a half-maximal response (EC50) was determined as 0.985 nM.
`COCC(C)(OC)[C@@H]1CC[C@]2(NCCN3CCS(=O)(=O)CC3)CC[C@]3(C)[C@H](CC[C@@H]4[C@@]5(C)CC=C(c6ccc(C(=O)O)cc6)C(C)(C)[C@@H]5CC[C@]43C)[C@@H]12` (single isomer, unassigned) [Example B2]: the EC50 turned out to be 1.05 nM.
Turning to `C=C(CN(C)C)[C@@H]1CC[C@]2(C(=O)O)CC[C@]3(C)[C@H](CC[C@@H]4[C@@]5(C)CC=C(c6ccc(C(=O)O)cc6)C(C)(C)[C@@H]5CC[C@]43C)[C@@H]12` [Example 3, (1R,3aS,5aR,5bR,7aR,11aS,11bR,13aR,13bS)-9-(4-carboxyphenyl)-1-(3-(dimethylamino)prop-1-en-2-yl)-5a,5b,8,8,11a-pentamethyl-2,3,3a,4,5,5a,5b,6,7,7a,8,11,11a,11b,12,13,13a,13b-octadecahydro-1H-cyclopenta[a]chrysene-3a-carboxylic acid], the EC50 amounted to 100 nM.
As for `CC([C@@H]1CC[C@]2(NCCN3CCS(=O)(=O)CC3)CC[C@]3(C)[C@H](CC[C@@H]4[C@@]5(C)CC=C(c6ccc(C(=O)O)cc6)C(C)(C)[C@@H]5CC[C@]43C)[C@@H]12)N1CCOCC1` (stereo partly drawn) [Example B20, 4-((1R,3aS,5aR,5bR,7aR,11aS,11bR,13aR,13bS)-3a-((2-(1,1-dioxidothiomorpholino)ethyl)amino)-5a,5b,8,8,11a-pentamethyl-1-(1-morpholinoethyl)-2,3,3a,4,5,5a,5b,6,7,7a,8,11,11a,11b,12,13,13a,13b-octadecahydro-1H-cyclopenta[a]chrysen-9-yl)benzoic acid], the EC50 is 2.05 nM.
As to `C=C(CO)[C@@H]1CC[C@]2(NC(=O)OC(C)(C)C)CC[C@]3(C)[C@H](CC[C@@H]4[C@@]5(C)CC=C(c6ccc(C(=O)O)c(F)c6)C(C)(C)[C@@H]5CC[C@]43C)[C@@H]12` [Example A1, 4-((1R,3aS,5aR,5bR,7aR,11aS,11bR,13aR,13bS)-3a-((tert-butoxycarbonyl)amino)-1-(3-hydroxyprop-1-en-2-yl)-5a,5b,8,8,11a-pentamethyl-2,3,3a,4,5,5a,5b,6,7,7a,8,11,11a,11b,12,13,13a,13b-octadecahydro-1H-cyclopenta[a]chrysen-9-yl)-2-fluorobenzoic acid], the concentration for a half-maximal effect (EC50) is 20 nM.
As for `C=C(COCCN1CCOCC1)[C@@H]1CC[C@]2(C(=O)NCCNCC(=O)O)CC[C@]3(C)[C@H](CC[C@@H]4[C@@]5(C)CC=C(c6ccc(C(=O)O)cc6)C(C)(C)[C@@H]5CC[C@]43C)[C@@H]12` [Example 17, 4-((1R,3aS,5aR,5bR,7aR,11aS,11bR,13aR,13bS)-3a-(2-(carboxymethylamino)ethylcarbamoyl)-5a,5b,8,8,11a-pentamethyl-1-(3-(2-morpholinoethoxy)prop-1-en-2-yl)-2,3,3a,4,5,5a,5b,6,7,7a,8,11,11a,11b,12,13,13a,13b-octadecahydro-1H-cyclopenta[a]chrysen-9-yl)benzoic acid], the EC50 was 80 nM.
For `C/C=C1\CC[C@]2(NCCN3CCS(=O)(=O)CC3)CC[C@]3(C)[C@H](CC[C@@H]4[C@@]5(C)CC=C(c6ccc(C(=O)O)cc6)C(C)(C)[C@@H]5CC[C@]43C)[C@@H]12` [Example B13, 4-((3aS,5aR,5bR,7aR,11aS,11bR,13aR,13bS)-3a-((2-(1,1-dioxidothiomorpholino)ethyl)amino)-1-ethylidene-5a,5b,8,8,11a-pentamethyl-2,3,3a,4,5,5a,5b,6,7,7a,8,11,11a,11b,12,13,13a,13b-octadecahydro-1H-cyclopenta[a]chrysen-9-yl)benzoic acid], the EC50 was 10 nM.
Regarding `CC(C)(C)OC(=O)N[C@@H]1CC[C@]2(C(=O)O)CC[C@]3(C)[C@H](CC[C@@H]4[C@@]5(C)CC=C(C6=CCC(C(=O)O)CC6)C(C)(C)[C@@H]5CC[C@]43C)[C@@H]12` (stereo partly drawn) [Example A8, (1R,3aR,5aR,5bR,7aR,11aS,11bR,13aR,13bR)-1-((tert-butoxycarbonyl)amino)-9-(4-carboxycyclohex-1-en-1-yl)-5a,5b,8,8,11a-pentamethyl-2,3,3a,4,5,5a,5b,6,7,7a,8,11,11a,11b,12,13,13a,13b-octadecahydro-1H-cyclopenta[a]chrysene-3a-carboxylic acid], the EC50 is 6.56 nM.
With `C=C(COCCN1CCOCC1)[C@@H]1CC[C@]2(C(=O)NCCNCCO)CC[C@]3(C)[C@H](CC[C@@H]4[C@@]5(C)CC=C(c6ccc(C(=O)O)cc6)C(C)(C)[C@@H]5CC[C@]43C)[C@@H]12` [Example 13, 4-((1R,3aS,5aR,5bR,7aR,11aS,11bR,13aR,13bS)-3a-(2-(2-hydroxyethylamino)ethylcarbamoyl)-5a,5b,8,8,11a-pentamethyl-1-(3-(2-morpholinoethoxy)prop-1-en-2-yl)-2,3,3a,4,5,5a,5b,6,7,7a,8,11,11a,11b,12,13,13a,13b-octadecahydro-1H-cyclopenta[a]chrysen-9-yl)benzoic acid], the EC50 came out at 1.97 nM.
